This series has as its system B16F10 cells. The experiment in a line: MTT assay, cell viability. Type of series: cell-based. Here is the method:
A melanocyte (B16F10) cell line was cultured using DMEM containing 10% FBS and 1% penicillin/streptomycin (PS) at 37° C. in a 5% CO2 incubator.
An MTT reagent was used by being diluted in DMEM at a concentration of 0.5 mg/mL.
B16F10 cells were seeded at 230,000 cells/well in a 6-well plate, and cultured at 37° C. in a 5% CO2 incubator for 24 hours. Subsequently, the cells were treated with peptide KH001 (SEQ ID NO: 96) at different concentrations for 72 hours to prepare the cells, and then the MTT reagent was added and allowed to react in a 37° C. incubator for 1 hour under light blocking conditions. After removing the entire medium, the generated formazan was dissolved in DMSO, and then absorbance was measured at 560 nm.
B16F10 cells were treated with the KH001 peptide at different concentrations. After 72 hours after KH001 peptide treatment, cell viability was measured using an MTT assay.

Where no end group is shown, it is not given here.

Results on one sequence are retold here after patent US20260070944A1, “PEPTIDE PROMOTING TYROSINASE ACTIVITY AND USE THEREOF” (HYSENSBIO CO., LTD, priority 2022, published 2026).

Take KYKQKRRSYK [KH001, KYKQKRRSYK]: the “cell viability compared to the control” value (50 μM, 100 μM and 200 μM, 72 hours, MTT) is “no significant difference”. For the same sequence, the toxicity entry (at the predetermined concentrations (50, 100, 200 μM)) is “no toxicity”.
